Data on 1 substance can be found in patent US20100075894A1, “REDUCING ER STRESS IN THE TREATMENT OF OBESITY AND DIABETES” (HARVARD UNIVERSITY, priority 2004, published 2010).

The test system of this test is mouse embryonic fibroblasts (MEF). Kind of test: tunicamycin ER stress response in MEFs (XBP-1 models). It is filed as cell-based. As for the experimental part:
ER stress responses in XBP-1s overexpressing cells, XBP-1^−/− cells and their controls. (A) Induction of XBP-1s expression upon removal of doxycycline in mouse embryonic fibroblasts (MEF). (B) Southern blot analysis of XBP-1^−/− MEF cells and their WT controls for the wild type (9.4 kb) and targeted (6.5 kb) alleles. (C) PERK phosphorylation (p-PERK) and JNK activity in the XBP-1s overexpressing cells and their control cells (−Dox and +Dox, respectively) upon tunicamycin treatment (Tun, 2 μg/ml). (D) PERK phosphorylation and JNK activity upon low dose tunicamycin treatment (Tun, 0.5 μg/ml) in XBP-1^−/− MEF cells and their WT controls. (E) IRS-1 Ser307 phosphorylation upon tunicamycin treatment (Tun, 2 μg/ml) in the XBP-1s overexpressing and the control cells (−Dox and +Dox, respectively), detected using immunoprecipitation (IP) of IRS-1 followed by immunoblotting (IB) with an IRS-1 phosphoserine 307-specific antibody. […] The ratio of IRS-1 tyrosine phosphorylation to total IRS-1 level was summarized from independent experiments and was presented in the graph. (G) IRS-1 Ser307 phosphorylation upon tunicamycin treatment (Tun, 0.5 μg/ml) in XBP-1^−/− cells and WT controls was detected as described in […]. […] (H) Insulin-stimulated tyrosine phosphorylation of IRS-1 in XBP-1^−/− and WT control cells with or without tunicamycin treatment (Tun, 0.5 μg/ml). The ratio of IRS-1 tyrosine phosphorylation to total IRS-1 level was summarized from independent experiments and presented in the graph. All graphs show mean±SEM from at least 2 independent experiments and statistically significance from the controls is indicated by * with p<0.005.
The transcription factor XBP-1 is a bZIP protein. The spliced or processed form of XBP-1 (XBP-1s) is a key factor in the transcriptional regulation of molecular chaperones and enhances the compensatory UPR (Calfon et al., Nature 415, 92 (2002); Shen et al., Cell 107:893 (2001); Yoshida et al., Cell 107:881 (2001); Lee et al., Mol. Cell Biol. 23:7448 (2003); each of which is incorporated herein by reference). We therefore reasoned that modulation of XBP-1s levels in cells should alter insulin action via its potential impact on the magnitude of the ER stress responses. To test this possibility, we established XBP-1 gain- and loss-of-function cellular models. First, we established an inducible gene expression system where exogenous XBP-1s is expressed only in the absence of tetracycline/doxycycline (FIG. 13A). In parallel, we also studied MEFs derived from XBP-1^−/− mouse embryos (Lee et al., Mol. Cell Biol. 23, 7448 (2003); A. M. Reimold et al., Genes Dev. 14, 152 (2000); Reimold et al., Nature 412, 300 (2001); each of which is incorporated herein by reference) (FIG. 13B). […] Upon induction of XBP-1s expression, there was a dramatic reduction in both PERK phosphorylation and JNK activation following tunicamycin treatment (FIG. 13C). […] Thus alterations in the levels of cellular XBP-1s protein result in alterations in the ER stress response.
Cells: Rat Fao liver cells were cultured with RPMI 1640 (Gibco, Grand Island, N.Y.) containing 10% fetal bovine serum (FBS). At 70-80% confluency, cells were serum depleted for 12 hours before starting the experiments. Reagents including tunicamycin, thapsigargin, and JNK inhibitors were gently added to the culture dishes in the incubator to prevent any environmental stress. JNK inhibitors were added 1 hour before tunicamycin/thapsigargin treatment. The XBP-1^−/− mouse embryonic fibroblasts (MEF) (A. H. Lee, N. N. Iwakoshi, L. H. Glimcher, Mol. Cell. Biol. 23:7448 (2003); incorporated herein by reference), IRE-1α^−/− MEF cells (kindly provided by Dr. David Ron, New York University School of Medicine), and their wild type controls were cultured in Dulbecco's Modified Eagle Medium (DMEM) (Gibco, Grand Island, N.Y.) containing 10% FBS. A similar protocol was followed for experiments in MEF cells, except that the cells were serum depleted for only 6 hours. […]

[1] abbreviates: fibroblasts without exogenous XBP-1s expression, 2 μg/ml.

As to tunicamycin, the ER stress entry (WT cells, low dose 0.5 μg/ml) is on record as “failed to stimulate significant ER stress”. The ER stress response result (XBP-1−/− MEFs, low dose 0.5 μg/ml) is reported as “strong ER stress response”. For the same substance, under setting [1], the PERK phosphorylation entry is reported as “strong PERK phosphorylation”; the “PERK phosphorylation, peak” value fell in the range of 3 to 4 h; the “PERK phosphorylation, start” value is 30 min; the “activation of JNK” value was “rapid and robust activation”.
